Patent publication US9637420B2, “Increased longevity of the nitrogen content of soil through improved liquid delivery formulations of urease inhibitors and/or nitrification inhibitors designed for urea and manure based fertilizers” (priority 2013, dated 2017)

Test: Degradation study of 2-chloro-6-trichloromethylpyridine/NBPT in DMSO at 50° C. by LC
Format: physicochemical
Protocol: A degradation study was performed using 2-chloro-6-trichloromethylpyridine/nBPT in DMSO
2-chloro-6-trichloromethylpyridine/NBPT=1/1 (w/w) mixture was dissolved in DMSO. LC's were done to analyze the content decrease along with time. All samples were sealed and protected under N2. All sample were stored 50° C.
C18 column, 255 nm. Retention time: 40 min. temperature: 30° C. 15 μL injection. Peak area percentage were calculated to analyze the concentration.

Compound: Clc1cccc(C(Cl)(Cl)Cl)n1 [2-chloro-6-trichloromethylpyridine]
- content of active, LC peak area percentage (week 1): 100 peak area percentage
- content of active, LC peak area percentage (week 2): 99 peak area percentage
- content of active, LC peak area percentage (week 3): 99.4 peak area percentage
- content of active, LC peak area percentage (week 4): 98.3 peak area percentage
- content of active, LC peak area percentage (week 6): 95.3 peak area percentage
- content of active, LC peak area percentage (week 7): 93.2 peak area percentage
- content of active, LC peak area percentage (week 8): 92.3 peak area percentage
- content of active, LC peak area percentage (week 9): 90.8 peak area percentage
- content of active, LC peak area percentage (week 10): 88 peak area percentage
- content of active, LC peak area percentage (week 11): 86.7 peak area percentage
- content of active, LC peak area percentage (week 12): 86.4 peak area percentage
- content of active, LC peak area percentage (week 13): 85 peak area percentage
- content of active, LC peak area percentage (week 14): 84.33 peak area percentage
- content of active, LC peak area percentage (week 15): 83.56 peak area percentage
- content of active, LC peak area percentage (week 16): 81.45 peak area percentage
- content of active, LC peak area percentage (week 17): 81 peak area percentage
- content of active, LC peak area percentage (week 18): 80.09 peak area percentage

Compound: CCCCNP(N)(N)=S [n-butylthiophosphoric triamide]
- content of active, LC peak area percentage (week 1): 100 peak area percentage
- content of active, LC peak area percentage (week 2): 99.6 peak area percentage
- content of active, LC peak area percentage (week 3): 98 peak area percentage
- content of active, LC peak area percentage (week 4): 97.6 peak area percentage
- content of active, LC peak area percentage (week 6): 96.5 peak area percentage
- content of active, LC peak area percentage (week 7): 95.3 peak area percentage
- content of active, LC peak area percentage (week 8): 94.7 peak area percentage
- content of active, LC peak area percentage (week 9): 93 peak area percentage
- content of active, LC peak area percentage (week 10): 92.2 peak area percentage
- content of active, LC peak area percentage (week 11): 92.1 peak area percentage
- content of active, LC peak area percentage (week 12): 91.7 peak area percentage
- content of active, LC peak area percentage (week 13): 91 peak area percentage
- content of active, LC peak area percentage (week 14): 90.88 peak area percentage
- content of active, LC peak area percentage (week 15): 90.01 peak area percentage
- content of active, LC peak area percentage (week 16): 99.55 peak area percentage
- content of active, LC peak area percentage (week 17): 89.06 peak area percentage
- content of active, LC peak area percentage (week 18): 88.6 peak area percentage
